Laboratory results published in patent US20120309622A1, “HERBICIDES CONTAINING SUBSTITUTED THIEN-3-YL-SULPHONYLAMINIO(THIO)CARBONYL-TRIAZOLIN(ETHI)ONES” (BAYER INTELLECTUAL PROPERTY GMBH, priority 2001, published 2012).
Several values for one entry are separate records, joined by “and”; a condition that tells them apart may be missing. Equal values may be shown once. Read-outs that look alike come from different tables or passages of the source.

Key:
Assay type in all cases: in vivo
Bromus secalinus = assay: Post-emergence test/greenhouse, % damage after three weeks; settings: for pest or weed control at 2 g/ha: 2 g of ai/ha; for pest or weed control at 4 g/ha: 4 g of ai/ha
Protocol: (§1) The expected action for a given combination of two herbicides can be calculated as follows (cf. COLBY, S. R.: “Calculating synergistic and antagonistic responses of herbicide combinations”, Weeds 15, pages 20-22, 1967):
(§2) If the actual damage exceeds the calculated value, the combination has a superadditive effect, that is to say a synergistic effect.
(§3) Test plants are grown under control conditions (temperature and light).
(§4) Following the spray application, the plant containers are kept in the greenhouse under constant light and temperature conditions.
(§5) After three weeks, the degree of damage to the plants is rated in % damage in comparison to the development of the untreated control.

Chenopodium album = assay: as above
Description: as §1
(§6) If • X=% damage by herbicide A (active compound of the formula I) at an application rate of p kg/ha and • Y=% damage by herbicide B (active compound of the formula II) at an application rate of q kg/ha and • E=the expected damage of herbicides A+B at an application rate of p+q kg/ha, then
as §2
(§7) Test plants are grown under control conditions (temperature and light). Once the plants have reached a height of 5 to 15 cm, the test compound or the combination of test compounds is applied by spraying such that the particular amounts of active compound desired are applied per unit area. The concentration of the spray liquor is chosen so that the particular amounts of active compound desired are applied in 500 litres of water/ha.
as §4, §5
(§8) The figures denote: • 0%=no effect (like untreated control) • 100%=total destruction

test plants = assay: Post-emergence test/greenhouse, % damage after three weeks (further test plants, Tables A-1-30 to A-1-104)
Description: as §1, §6, §2, §7, §4, §5, §8

Alopecurus myosuroides = assay: Post-emergence test/greenhouse, % damage after three weeks
Description: as §1, §6, §2, §7, §4, §5, §8

Polygonum convolvolus = assay: as above
Veronica persicaria = assay: as above
Protocol: as §1, §2, §3, §4, §5

Digitaria sanguinalis = assay: as above
Description: as §1, §6, §2, §7, §4, §5, §8

Abutilon theophrasti = assay: as above
Description: as §1, §6, §2, §7, §4, §5, §8

Avena fatua = assay: as above
Description: as §1, §6, §2, §7, §4, §5, §8

Xanthium strumarium = assay: as above
Description: as §1, §6, §2, §7, §4, §5, §8

Cassia tora = assay: as above
Protocol: as §1, §2, §3, §4, §5

Galium aparine = assay: as above
Matricaria inodora = assay: as above
Description: as §1, §6, §2, §7, §4, §5, §8

Ipomoea hederacea = assay: as above
Description: as §1, §6, §2, §7, §4, §5, §8

Viola arvensis = assay: as above
Description: as §1, §6, §2, §7, §4, §5, §8

Cyperus esculentus = assay: as above
Description: as §1, §6, §2, §7, §4, §5, §8

Setaria viridis = assay: as above; settings: for Setria viridis observed: post-emergence
Description: as §1, §6, §2, §7, §4, §5, §8

Lolium perenne = assay: as above
Eriochloa villosa = assay: as above
[1] = application rate 125 g of ai/ha
[2] = Bromus secalinus, post-emergence, 504 h, 15 g of ai/ha, read-out: Bromus secalinus observed
[3] = Bromus secalinus, post-emergence, 504 h, read-out: Bromus secalinus observed

Compound: flufenacet
- Bromus secalinus observed (Bromus secalinus; application rate 30 g of ai/ha): 0%
- Bromus secalinus observed (Bromus secalinus; application rate 60 g of ai/ha): 20%
- Bromus secalinus observed (Bromus secalinus; [1]): 40%
- Chenopodium album observed (Chenopodium album; application rate 30 g of ai/ha): 0%
- Chenopodium album observed (Chenopodium album; application rate 60 g of ai/ha): 0%
- Chenopodium album observed (Chenopodium album; [1]): 0%
- Polygonum convolvolus observed (test plants; application rate 30 g of ai/ha): 0%
- Polygonum convolvolus observed (test plants; application rate 60 g of ai/ha): 0%
- Polygonum convolvolus observed (test plants; [1]): 0%

Compound: CS(=O)(=O)c1ccc(C(=O)C2C(=O)CCCC2=O)c([N+](=O)[O-])c1 [mesotrione]
- pest or weed control at 15 g/ha (Bromus secalinus; [2]): 0%
- pest or weed control at 30 g/ha (Bromus secalinus; Bromus secalinus, post-emergence, 504 h, 30 g of ai/ha, read-out: Bromus secalinus observed): 0%
- Alopecurus myosuroides observed (Alopecurus myosuroides; 15 g of ai/ha): 0%
- Alopecurus myosuroides observed (Alopecurus myosuroides; 30 g of ai/ha): 0%
- Polygonum convolvolus observed (Polygonum convolvolus; 15 g of ai/ha): 50%

Compound: COc1cc(OC)n2nc(S(=O)(=O)Nc3c(Cl)ccc(C)c3Cl)nc2n1 [metosulam, N-(2,6-dichloro-3-methylphenyl)-5,7-dimethoxy-1,2,4-tri-azolo[1,5-a]-pyrimidine-2-sulphonamide, reference compound]
- Veronica persicaria observed (Veronica persicaria; 4 g of ai/ha): 80%
- Digitaria sanguinalis observed (Digitaria sanguinalis; 8 g of ai/ha): 30%
- Activity against Abutilon theophrasti (%) (Abutilon theophrasti; 12.5 g of a.i./ha): 60%
- Activity against Abutilon theophrasti (%) (Abutilon theophrasti; 25 g of a.i./ha): 70%
- Avena fatua observed (Avena fatua; 8 g of ai/ha): 0%
- Activity against Xanthium strumarum (%) (Xanthium strumarium; 12.5 g of a.i./ha): 60%
- Activity against Xanthium strumarum (%) (Xanthium strumarium; 25 g of a.i./ha): 90%

Compound: CCCOc1nn(C(=O)[N-]S(=O)(=O)c2ccccc2C(=O)OC)c(=O)n1C.[Na+] [propoxycarbazone-sodium]
- Cassia tora observed (Cassia tora; 30 g of ai/ha): 30%
- Veronica persicaria observed (Veronica persicaria; 60 g of ai/ha): 40%
- Polygonum convolvolus observed (Polygonum convolvolus; 30 g of ai/ha): 0%
- Polygonum convolvolus observed (Polygonum convolvolus; 60 g of ai/ha): 0%

Compound: Cc1cc(Cl)ccc1O[C@@H](C)C(=O)O [mecoprop-P]
- Galium aparine observed (Galium aparine; 125 g of ai/ha): 20%
- Galium aparine observed (Galium aparine; 250 g of ai/ha): 40%
- Digitaria sanguinalis observed (Digitaria sanguinalis; 125 g of ai/ha): 40%
- Digitaria sanguinalis observed (Digitaria sanguinalis; 250 g of ai/ha): 70%
- Matricaria inodora observed (Matricaria inodora; 125 g of ai/ha): 0%
- Matricaria inodora observed (Matricaria inodora; 250 g of ai/ha): 0%

Compound: CCOC(=O)[C@@H](C)Oc1ccc(Oc2nc3ccc(Cl)cc3o2)cc1 [fenoxaprop-(P)-ethyl, reference compound]
- Veronica persicaria observed (Veronica persicaria; 8 g of ai/ha): 0%
- Veronica persicaria observed (Veronica persicaria; 15 g of ai/ha): 0%
- Veronica persicaria observed (Veronica persicaria; 30 g of ai/ha): 0%
- Bromus secalinus observed (Bromus secalinus; 8 g of ai/ha): 0%
- Bromus secalinus observed (Bromus secalinus; 15 g of ai/ha): 0%
- Bromus secalinus observed (Bromus secalinus; 30 g of ai/ha): 0%
- Ipomoea hederacea observed (Ipomoea hederacea; 30 g of ai/ha): 0%

Compound: CCS(=O)(=O)c1cccnc1S(=O)(=O)NC(=O)Nc1nc(OC)cc(OC)n1 [rimsulfuron]
- Cassia tora observed (Cassia tora; 4 g of ai/ha): 60%
- Cassia tora observed (Cassia tora; 8 g of ai/ha): 80%
- Abutilon theophrasti observed (Abutilon theophrasti; 4 g of ai/ha): 70%
- Avena fatua observed (Avena fatua; 4 g of ai/ha): 70%
- Avena fatua observed (Avena fatua; 8 g of ai/ha): 70%

Compound: COc1nn(C(=O)NS(=O)(=O)c2ccccc2OC(F)(F)F)c(=O)n1C.[Na] [flucarbazone-sodium, 4,5-dihydro-3-methoxy-4-methyl-5-oxo-N-[(2-trifluoromethoxyphenyl)-sulphonyl]-1-H-1,2,4-triazole-1-carboxamide sodium salt, reference compound]
- Veronica persicaria observed (Veronica persicaria; 30 g of ai/ha): 20%
- Veronica persicaria observed (Veronica persicaria; 60 g of ai/ha): 60%
- Bromus secalinus observed (Bromus secalinus; 60 g of ai/ha): 70%
- Viola arvensis observed (Viola arvensis; 15 g of ai/ha): 30%

Compound: COC(=O)c1csc(C)c1S(=O)(=O)NC(=O)n1nc(OC)n(C)c1=O [I-2]
- Cassia tora observed (Cassia tora; 2 g of ai/ha): 20%
- Cassia tora observed (Cassia tora; 4 g of ai/ha): 0%
- Cassia tora observed (Cassia tora; 8 g of ai/ha): 0%
- Veronica persicaria observed (Veronica persicaria; 2 g of ai/ha): 0%
- Veronica persicaria observed (Veronica persicaria; 15 g of ai/ha): 60% and 40%
- pest or weed control at 2 g/ha (Bromus secalinus; [3]): 70%
- pest or weed control at 4 g/ha (Bromus secalinus; [3]): 70%
- pest or weed control at 8 g/ha (Bromus secalinus; Bromus secalinus, post-emergence, 504 h, 8 g of ai/ha, read-out: Bromus secalinus observed): 80%
- pest or weed control at 15 g/ha (Bromus secalinus; [2]): 70%
- pest or weed control at 8 g/ha (Bromus secalinus; Bromus secalinus, post-emergence, 504 h, application rate 8 g of ai/ha, read-out: Bromus secalinus observed): 80%
- Galium aparine observed (Galium aparine; 4 g of ai/ha): 80%
- Digitaria sanguinalis observed (Digitaria sanguinalis; 4 g of ai/ha): 60%
- Digitaria sanguinalis observed (Digitaria sanguinalis; 8 g of ai/ha): 80% and 90%
- Cyperus esculentus observed (Cyperus esculentus; 8 g of ai/ha): 80% and 70%
- Cyperus esculentus observed (Cyperus esculentus; 15 g of ai/ha): 70%
- Abutilon theophrasti observed (Abutilon theophrasti; 2 g of ai/ha): 60%
- Abutilon theophrasti observed (Abutilon theophrasti; 4 g of ai/ha): 70%
- Activity against Abutilon theophrasti (%) (Abutilon theophrasti; 8 g of a.i./ha): 70%
- Setaria viridis observed (Setaria viridis; 2 g of ai/ha): 90%
- Setaria viridis observed (Setaria viridis; 4 g of ai/ha): 80% and 90%
- Setaria viridis observed (Setaria viridis; 8 g of ai/ha): 90% and 95%
- Setria viridis observed (Setaria viridis; application rate 2 g of ai/ha): 90%
- Setria viridis observed (Setaria viridis; application rate 4 g of ai/ha): 90%
- Ipomoea hederacea observed (Ipomoea hederacea; 2 g of ai/ha): 80%
- Ipomoea hederacea observed (Ipomoea hederacea; 4 g of ai/ha): 80%
- Ipomoea hederacea observed (Ipomoea hederacea; 8 g of ai/ha): 80%
- Alopecurus myosuroides observed (Alopecurus myosuroides; 2 g of ai/ha): 70% and 80%
- Alopecurus myosuroides observed (Alopecurus myosuroides; 4 g of ai/ha): 70% and 80%
- Alopecurus myosuroides observed (Alopecurus myosuroides; 8 g of ai/ha): 90% and 80%
- Alopecurus myosuroides observed (Alopecurus myosuroides; 15 g of ai/ha): 90% and 80%
- Viola arvensis observed (Viola arvensis; 4 g of ai/ha): 40%
- Viola arvensis observed (Viola arvensis; 8 g of ai/ha): 50%
- Matricaria inodora observed (Matricaria inodora; 2 g of ai/ha): 50% and 80%
- Matricaria inodora observed (Matricaria inodora; 4 g of ai/ha): 70%
- Matricaria inodora observed (Matricaria inodora; 15 g of ai/ha): 95%
- Chenopodium album observed (Chenopodium album; 4 g of ai/ha): 70%
- Activity against Chenopodium album (%) (Chenopodium album; 8 g of a.i./ha): 70%
- Chenopodium album observed (Chenopodium album; 8 g of ai/ha): 85%
- Chenopodium album observed (Chenopodium album; application rate 2 g of ai/ha): 70%
- Avena fatua observed (Avena fatua; 2 g of ai/ha): 70% and 50% and 80%
- Avena fatua observed (Avena fatua; 4 g of ai/ha): 80% and 70% and 90%
- Avena fatua observed (Avena fatua; 8 g of ai/ha): 70% and 90%
- Avena fatua observed (Avena fatua; 15 g of ai/ha): 70%
- Xanthium strumarium observed (Xanthium strumarium; 4 g of ai/ha): 90%
- Xanthium strumarium observed (Xanthium strumarium; 8 g of ai/ha): 70%
- Polygonum convolvolus observed (Polygonum convolvolus; 2 g of ai/ha): 70%
- Polygonum convolvolus observed (Polygonum convolvolus; 4 g of ai/ha): 70% and 80%
- Lolium perenne observed (Lolium perenne; 2 g of ai/ha): 70% and 80%
- Lolium perenne observed (Lolium perenne; 4 g of ai/ha): 70%
- Lolium perenne observed (Lolium perenne; 8 g of ai/ha): 90%
- Eriochloa villosa observed (Eriochloa villosa; 4 g of ai/ha): 40% and 30%
- Eriochloa villosa observed (Eriochloa villosa; 8 g of ai/ha): 70% and 60% and 90%
- Polygonum convolvolus observed (test plants; application rate 2 g of ai/ha): 70%
- Polygonum convolvolus observed (test plants; application rate 4 g of ai/ha): 80%
- Polygonum convolvolus observed (test plants; application rate 8 g of ai/ha): 90%

Compound: COC(=O)c1ccc(C(F)(F)F)nc1S(=O)(=O)NC(=O)Nc1nc(OC)cc(OC)n1.[Na] [flupyrsulfuron, N-(4,6-dimethoxypyrimidin-2-yl)-N′-(3-methoxycarbonyl-6-trifluoromethylpyridin-2-ylsulphonyl)urea sodium salt, reference compound]
- pest or weed control at 2 g/ha (Bromus secalinus; [3]): 0%
- pest or weed control at 4 g/ha (Bromus secalinus; [3]): 0%
- Digitaria sanguinalis observed (Digitaria sanguinalis; 4 g of ai/ha): 20%
- Polygonum convolvolus observed (Polygonum convolvolus; 2 g of ai/ha): 70%
- Polygonum convolvolus observed (Polygonum convolvolus; 4 g of ai/ha): 80%

Compound: COc1cc(OC)nc(NC(=O)NS(=O)(=O)c2cc(NC=O)ccc2C(=O)N(C)C)n1 [foramsulfuron]
- Cyperus esculentus observed (Cyperus esculentus; 8 g of ai/ha): 80%
- Ipomoea hederacea observed (Ipomoea hederacea; 15 g of ai/ha): 80%
- Eriochloa villosa observed (Eriochloa villosa; 15 g of ai/ha): 60%
